Measurements reported in PubChem BioAssay AID216 (DTP/NCI, 2004).
“And” between values parts separate entries of the source, which are not always exact repeats. Equal values may be shown once. Toxic doses and inconclusive results are not listed.

Tested on: BDF1 mice, P288 leukemia ip, survival T/C
Test: NCI In Vivo Anticancer Drug Screen. Data for tumor model P288 Lymphocytic Leukemia (intraperitoneal) in B6D2F1 (BDF1) mice
Conditions: endpoint: survival time, mean or median, higher = longer survival
Procedure: The antitumor activity of compounds was measured in mice bearing transplantable tumors. Survival or tumor size were measured and the results are expressed as the measurement made in the treated group (T) divided by the measurement made in the vehicle treated control group (C). The tumor model used in this assay is P288 Lymphocytic Leukemia (intraperitoneal) in B6D2F1 (BDF1) mice

[1] = dose: 62.5 mg/kg/injection, schedule: Q01DX010 (ip), vehicle: saline
[2] = dose: 125.0 mg/kg/injection, schedule: Q01DX010 (ip), vehicle: saline
[3] = dose: 250.0 mg/kg/injection, schedule: Q01DX010 (ip), vehicle: saline
[4] = dose: 31.3 mg/kg/injection, schedule: Q01DX010 (ip), vehicle: saline
[5] = dose: 50.0 mg/kg/injection, schedule: Q01DX010 (ip), vehicle: saline
[6] = dose: 100.0 mg/kg/injection, schedule: Q01DX010 (ip), vehicle: saline
[7] = dose: 200.0 mg/kg/injection, schedule: Q01DX010 (ip), vehicle: saline
[8] = dose: 1.25 mg/kg/injection, schedule: Q01DX010 (ip), vehicle: saline
[9] = dose: 2.5 mg/kg/injection, schedule: Q01DX010 (ip), vehicle: saline
[10] = dose: 10.0 mg/kg/injection, schedule: Q01DX010 (ip), vehicle: saline
[11] = dose: 400.0 mg/kg/injection, schedule: Q01DX010 (ip), vehicle: saline

Q: Which T/C (dose: 0.2 mg/kg/injection, schedule: Q01DX Z (ip), vehicle: water) does the source give for `O=C(Nc1ccc(C2=NCCCN2)cc1)c1ccc(C(=O)Nc2ccc(C3=NCCCN3)cc2)cc1` here?
A: Its T/C is 100 % of control.

Q: What about the T/C (dose: 0.4 mg/kg/injection, schedule: Q01DX Z (ip), vehicle: water) of the same molecule?
A: Its T/C is 109 % of control.

Q: And the T/C (dose: 0.5 mg/kg/injection, schedule: Q01DX010 (ip), vehicle: other)?
A: The T/C was 116 % of control and 120 % of control.

Q: And the T/C (dose: 1.0 mg/kg/injection, schedule: Q01DX010 (ip), vehicle: other)?
A: The T/C was 150 % of control.

Q: What about the T/C (dose: 1.6 mg/kg/injection, schedule: Q01DX Z (ip), vehicle: water) of the same molecule?
A: The T/C was 177 % of control.

Q: What about the T/C (dose: 2.0 mg/kg/injection, schedule: Q01DX010 (ip), vehicle: other) of the same molecule?
A: The T/C was 192 % of control and 216 % of control.

Q: And the T/C (dose: 3.1 mg/kg/injection, schedule: Q01DX Z (ip), vehicle: water)?
A: Its T/C is 273 % of control.

Q: And the T/C (dose: 4.0 mg/kg/injection, schedule: Q01DX010 (ip), vehicle: other)?
A: The T/C was 164 % of control and 212 % of control.

Q: And the T/C (dose: 8.0 mg/kg/injection, schedule: Q01DX010 (ip), vehicle: other)?
A: The T/C was 91 % of control.

Q: Which T/C (dose: 0.5 mg/kg/injection, schedule: Q01DX010 (ip), vehicle: saline) does the source give for `COc1cc2c(c(OC)c1OC)-c1ccc(N)c(=O)cc1[C@@H](NC(C)=O)CC2` here?
A: The T/C was 157 % of control.

Q: What about the T/C (dose: 1.0 mg/kg/injection, schedule: Q01DX010 (ip), vehicle: saline) of the same molecule?
A: Its T/C is 164 % of control and 214 % of control.

Q: And the T/C (dose: 2.0 mg/kg/injection, schedule: Q01DX010 (ip), vehicle: saline)?
A: The T/C was 176 % of control and 242 % of control.

Q: And the T/C (dose: 4.0 mg/kg/injection, schedule: Q01DX010 (ip), vehicle: saline)?
A: Its T/C is 100 % of control.

Q: Which T/C [1] does the source give for `c1ccc(CCSc2ncnc3nc[nH]c23)cc1` here?
A: Its T/C is 100 % of control.

Q: What about the T/C [2] of the same molecule?
A: Its T/C is 100 % of control.

Q: What about the T/C [3] of the same molecule?
A: Its T/C is 122 % of control and 100 % of control.

Q: And the T/C (dose: 500.0 mg/kg/injection, schedule: Q01DX010 (ip), vehicle: saline)?
A: Its T/C is 105 % of control and 122 % of control.

Q: For `CCCSc1ncnc2nc[nH]c12`, which T/C (dose: 6.25 mg/kg/injection, schedule: Q01DX Z (ip), vehicle: carboxymethylcellulose (CMC)) is on record?
A: Its T/C is 113 % of control.

Q: What about the T/C (dose: 12.5 mg/kg/injection, schedule: Q01DX Z (ip), vehicle: carboxymethylcellulose (CMC)) of the same molecule?
A: The T/C was 105 % of control.

Q: What about the T/C [4] of the same molecule?
A: Its T/C is 88 % of control.

Q: What about the T/C (dose: 50.0 mg/kg/injection, schedule: Q01DX Z (ip), vehicle: carboxymethylcellulose (CMC)) of the same molecule?
A: The T/C was 115 % of control.

Q: What about the T/C [1] of the same molecule?
A: Its T/C is 94 % of control.

Q: What about the T/C [2] of the same molecule?
A: The T/C was 88 % of control.

Q: With `CO[C@@H]1[C@@H](OC2OC(C)C(OC3CC(C)(O)C(OC(=O)CC(C)C)C(C)O3)C(N(C)C)C2O)[C@@H](CC=O)C[C@@H](C)C(=O)/C=C/C2O[C@H]2C[C@@H](C)OC(=O)C[C@H]1OC(C)=O` (stereo partly specified) as the molecule, how does the T/C (dose: 37.5 mg/kg/injection, schedule: Q01DX010 (ip), vehicle: saline) read?
A: The T/C was 94 % of control.

Q: What about the T/C [5] of the same molecule?
A: The T/C was 112 % of control.

Q: And the T/C (dose: 75.0 mg/kg/injection, schedule: Q01DX010 (ip), vehicle: saline)?
A: Its T/C is 88 % of control.

Q: What about the T/C [6] of the same molecule?
A: Its T/C is 162 % of control.

Q: And the T/C (dose: 150.0 mg/kg/injection, schedule: Q01DX010 (ip), vehicle: saline)?
A: Its T/C is 88 % of control.

Q: What about the T/C [7] of the same molecule?
A: The T/C was 168 % of control.

Q: What about the T/C (dose: 300.0 mg/kg/injection, schedule: Q01DX010 (ip), vehicle: saline) of the same molecule?
A: The T/C was 100 % of control.

Q: For `CCN(CCNc1ccc(C)c2sc3cc(Cl)ccc3c(=O)c12)CC(C)O` (stereo unspecified), which T/C [4] is on record?
A: The T/C was 112 % of control.

Q: And the T/C [1]?
A: The T/C was 94 % of control.

Q: What about the T/C [2] of the same molecule?
A: The T/C was 105 % of control.

Q: What about the T/C [3] of the same molecule?
A: Its T/C is 118 % of control and 94 % of control.

Q: Which T/C (dose: 0.25 mg/kg/injection, schedule: Q01DX010 (ip), vehicle: saline) does the source give for `N#C[C@@H]1C2C=CC(CC2)[C@H]1C#N` here?
A: The T/C was 89 % of control.

Q: What about the T/C (dose: 63.0 micrograms/kg/injection, schedule: Q01DX010 (ip), vehicle: saline) of the same molecule?
A: The T/C was 105 % of control.

Q: What about the T/C (dose: 125.0 micrograms/kg/injection, schedule: Q01DX010 (ip), vehicle: saline) of the same molecule?
A: Its T/C is 105 % of control.

Q: And the T/C (dose: 500.0 micrograms/kg/injection, schedule: Q01DX010 (ip), vehicle: saline)?
A: Its T/C is 111 % of control.

Q: For `Oc1cc(CN(CCCl)CCCl)c(O)cc1CN(CCCl)CCCl`, which T/C (dose: 0.63 mg/kg/injection, schedule: Q01DX010 (ip), vehicle: saline) is on record?
A: The T/C was 100 % of control.

Q: And the T/C [8]?
A: The T/C was 111 % of control and 100 % of control.

Q: And the T/C (dose: 1.88 mg/kg/injection, schedule: Q01DX Z (sc), vehicle: steriod suspending solution)?
A: The T/C was 87 % of control.

Q: What about the T/C [9] of the same molecule?
A: Its T/C is 105 % of control.

Q: And the T/C (dose: 3.75 mg/kg/injection, schedule: Q01DX Z (sc), vehicle: steriod suspending solution)?
A: Its T/C is 104 % of control.

Q: And the T/C (dose: 5.0 mg/kg/injection, schedule: Q01DX010 (ip), vehicle: saline)?
A: Its T/C is 105 % of control and 116 % of control.

Q: What about the T/C [10] of the same molecule?
A: Its T/C is 95 % of control.

Q: Which T/C [5] does the source give for `OC(CBr)C(O)C(O)C(O)CBr` (stereo unspecified) here?
A: The T/C was 114 % of control and 94 % of control.

Q: What about the T/C [6] of the same molecule?
A: Its T/C is 114 % of control and 94 % of control.

Q: And the T/C [7]?
A: Its T/C is 114 % of control and 94 % of control.

Q: And the T/C [11]?
A: Its T/C is 105 % of control and 114 % of control.

Q: For `O=c1cnn(C2OC(CO)C(O)C2O)c(=O)[nH]1` (stereo unspecified), which T/C (dose: 15.62 mg/kg/injection, schedule: Q01DX Z (ip), vehicle: water) is on record?
A: The T/C was 101 % of control.

Q: And the T/C (dose: 31.25 mg/kg/injection, schedule: Q01DX Z (ip), vehicle: water)?
A: Its T/C is 101 % of control.

Q: And the T/C (dose: 62.5 mg/kg/injection, schedule: Q01DX Z (ip), vehicle: water)?
A: The T/C was 104 % of control.

Q: What about the T/C (dose: 125.0 mg/kg/injection, schedule: Q01DX Z (ip), vehicle: water) of the same molecule?
A: Its T/C is 113 % of control and 95 % of control.

Q: And the T/C [7]?
A: The T/C was 111 % of control and 112 % of control.

Q: What about the T/C (dose: 250.0 mg/kg/injection, schedule: Q01DX Z (ip), vehicle: water) of the same molecule?
A: Its T/C is 103 % of control and 123 % of control.

Q: And the T/C [11]?
A: The T/C was 118 % of control.

Q: And the T/C (dose: 500.0 mg/kg/injection, schedule: Q01DX Z (ip), vehicle: water)?
A: The T/C was 94 % of control.

Q: What about the T/C (dose: 800.0 mg/kg/injection, schedule: Q01DX010 (ip), vehicle: saline) of the same molecule?
A: Its T/C is 122 % of control.

Q: What about the T/C (dose: 1000.0 mg/kg/injection, schedule: Q01DX Z (ip), vehicle: water) of the same molecule?
A: The T/C was 103 % of control.

Q: And the T/C (dose: 1600.0 mg/kg/injection, schedule: Q01DX010 (ip), vehicle: saline)?
A: Its T/C is 112 % of control and 94 % of control.

Q: For `CN(N=O)C(=O)NC(C=O)C(O)C(O)C(O)CO` (stereo unspecified), which T/C (dose: 50.0 mg/kg/injection, schedule: Q01DX Z (ip), vehicle: saline) is on record?
A: Its T/C is 111 % of control.

Q: What about the T/C (dose: 100.0 mg/kg/injection, schedule: Q01DX Z (ip), vehicle: saline) of the same molecule?
A: Its T/C is 122 % of control.

Q: Which results are given for `CN(C)[C@@H]1C(=O)C(C(N)=O)=C(O)[C@@]2(O)C(=O)C3=C(O)c4c(O)cccc4C[C@H]3C[C@@H]12`?
A: T/C (dose: 7.5 mg/kg/injection, schedule: Q01DX010 (ip), vehicle: saline): 94 % of control; T/C (dose: 15.0 mg/kg/injection, schedule: Q01DX010 (ip), vehicle: saline): 105 % of control and 94 % of control; T/C (dose: 30.0 mg/kg/injection, schedule: Q01DX010 (ip), vehicle: saline): 122 % of control and 100 % of control; T/C (dose: 60.0 mg/kg/injection, schedule: Q01DX010 (ip), vehicle: saline): 94 % of control and 100 % of control

Q: What does the source list for `C[C@]12CCC(=O)C[C@H]1CC[C@@H]1[C@@H]2CC[C@@]2(C)[C@H]1CC[C@]2(C)O`?
A: T/C (dose: 62.5 mg/kg/injection, schedule: Q01DX Z (sc), vehicle: steriod suspending solution): 97 % of control; T/C (dose: 125.0 mg/kg/injection, schedule: Q01DX Z (sc), vehicle: steriod suspending solution): 98 % of control; T/C (dose: 250.0 mg/kg/injection, schedule: Q01DX Z (sc), vehicle: steriod suspending solution): 109 % of control and 92 % of control; T/C (dose: 500.0 mg/kg/injection, schedule: Q01DX Z (sc), vehicle: steriod suspending solution): 104 % of control and 100 % of control; T/C (dose: 1000.0 mg/kg/injection, schedule: Q01DX Z (sc), vehicle: steriod suspending solution): 101 % of control

Q: Which results are given for `N#[N+]c1cnc([O-])[nH]c1=O`?
A: T/C (dose: 0.63 mg/kg/injection, schedule: Q01DX Z (ip), vehicle: carboxymethylcellulose (CMC)): 112 % of control; T/C [8]: 105 % of control; T/C (dose: 1.25 mg/kg/injection, schedule: Q01DX Z (ip), vehicle: carboxymethylcellulose (CMC)): 117 % of control; T/C [9]: 104 % of control; T/C [10]: 155 % of control
